US20260048041A1, “COMPOSITION FOR REMOVING HELICOBACTER PYLORI COMPRISING ZASTAPRAZAN OR PHARMACEUTICALLY ACCEPTABLE SALT THEREOF” (JEIL PHARMACEUTICAL CO., LTD., priority 2022, published 2026)

Key:
[1] = tested on: Helicobacter pylori SS1 (mouse colonizing strain); test: Anti-H. pylori in vitro efficacy test, MIC and MBC by microdilution (CLSI); format: cell-based
Description: (§1) Helicobacter pylori SS1 (mouse colonizing strain): A strain known as Sydney strain. The strain is CagA-positive and VacA-positive and has been confirmed to infect and colonize in C57BL/6 mice. The strain is used in animal testing. An antibiotic susceptibility testing was performed using the microdilution method according to the CLSI guideline. […] The bacteria were inoculated into wells containing only medium without antibiotics to prepare the positive control group, and the wells containing only medium without antibiotics or inoculated bacteria were used as the negative control group. The concentration range of the test substances, zastaprazan (JP-1366) and fexuprazan, was determined through preliminary experiments. […] The lowest concentration at which no bacterial growth was observed was determined as the MIC. […] The lowest concentration at which no bacteria growth occurred was determined as the MBC. […] All tests were performed in duplicate, and the results were determined by conducting the experiments in triplicate.

[2] = tested on: Helicobacter pylori (ATCC43504); test: as above; format: cell-based; settings: strain 43504, unit not given in table (method uses μg/mL); for MIC: 3 days, microaerobic
Description: as §1, with “(ATCC43504): Type” for “SS1 (mouse colonizing strain): A”, “for antibiotic susceptibility testing according” for “known as Sydney strain. The strain is CagA-positive and VacA-positive and has been confirmed”, “the Clinical & Laboratory Standards Institute (CLSI) guidelines.” for “infect and colonize in C57BL/6 mice. The strain is used in animal testing.”

[3] = tested on: Helicobacter pylori 26695 (ATCC700329); test: as above; format: cell-based; settings: strain 26695; unit not given in table (method uses μg/mL)
Description: Helicobacter pylori 26695 (ATCC700329): A strain isolated from a patient known to be associated with the development of gastric cancer. The strain is cytotoxin associated gene (CagA)-positive and vacuolating cytotoxin (VacA)-positive and has a well-known genetic background, so it is mainly used for research purposes. An antibiotic susceptibility testing was performed using the microdilution method according to the CLSI guideline. […] The bacteria were inoculated into wells containing only medium without antibiotics to prepare the positive control group, and the wells containing only medium without antibiotics or inoculated bacteria were used as the negative control group. The concentration range of the test substances, zastaprazan (JP-1366) and fexuprazan, was determined through preliminary experiments. […] The lowest concentration at which no bacterial growth was observed was determined as the MIC. […] The lowest concentration at which no bacteria growth occurred was determined as the MBC. […] All tests were performed in duplicate, and the results were determined by conducting the experiments in triplicate.

[4] = tested on: Helicobacter pylori SS1 (mouse colonizing strain); test: Efficacy of JP-1366 to enhance antibacterial activity of clarithromycin, MIC and MBC by microdilution; format: cell-based; settings: H. pylori SS1
Description: Helicobacter pylori SS1 (mouse colonizing strain): Known as Sydney strain, the strain is […] and VacA-positive, and has been confirmed to colonize mice C57BL/6 and is used in animal experiments.
An antibiotic susceptibility test was performed by the microdilution method according to CLSI guideline.
The antibiotic susceptibility test was performed using MH broth (7% horse serum, 0.4% IsoVitalex), and the susceptibility test medium for zastaprazan (JP-1366) was prepared at this time. […] Using the medium prepared in this way, clarithromycin was serially diluted 2-fold and in 16 steps, with a maximum concentration of 16 μg/mL. Wells containing only the medium without antibiotics were used as a negative control group, and wells inoculated only with the bacteria in the medium without antibiotics were used as a positive control group. H. pylori stored in a deep freezer (−70° C. or lower) was inoculated onto BHI agar (w/7% laked horse blood, 0.4% IsoVitalex) and cultured for three days at 37° C. under microaerophilic conditions (Oxoid CampyGene gas pk) and then subcultured onto a fresh medium. The cultured bacteria were harvested, suspended in PBS, and inoculated into each well at a concentration of 5×10^5 CFU/mL. Thereafter, the bacteria were cultured for three days at 37° C. under microaerophilic conditions of 5% 02, 10% CO2, and 85% N2 gas. The lowest concentration of the sample at which no bacterial growth was observed was determined as the MIC. […] The lowest concentration at which no bacterial growth was observed was determined as the minimum bactericidal concentration(MBC).

[5] = tested on: patients with erosive gastroesophageal reflux disease; test: Phase 2 clinical trial, healing of mucosal breaks and symptoms; format: in vivo, human
Description: H. pylori testing was performed by 13C-urea breath test (13C-UBT), gastroscopy (Campylobacter-like organism test, CLO), or tissue biopsy to confirm H. pylori positivity/negativity. The testing was performed at the screening visit (Visit 1) or the randomization visit (Visit 2), and results from the same institution within 29 days prior to the randomization visit (Visit 2) could be substituted. This clinical trial was a randomized, double-blind, active-controlled, multicenter, phase 2 clinical trial targeting patients with erosive gastroesophageal reflux disease. After the subjects gave written consent to participate in the clinical trial, a screening test was conducted. […] At this time, the subjects were stratified by grade (A, B, C, D) according to the LA classification system classified by upper gastrointestinal endoscopy. Randomly assigned subjects took the clinical trial drug once a day according to the assigned administration group for four weeks. After four weeks of administration of the clinical trial drug, the subjects visited the clinical trial institution to undergo an upper gastrointestinal endoscopy to assess whether they were healed. Healed subjects underwent a Safety Follow-Up (F/U) two weeks later, and unhealed subjects were administered the clinical trial drug for additional four weeks (a total of 8 weeks of administration) and visited the clinical trial institution to undergo an upper gastrointestinal endoscopy. […] 3.

[6] = Solubility seen during MIC analysis; format: physicochemical; settings: in MIC medium; suspension formed, MIC analysis difficult
From the text: Referring to Table 4 below, since the solubility of zastaprazan (JP-1366) was low, the MIC analysis was difficult (poor solubility, formation of suspension, interference in visual/absorbance analysis), so the inhibitory effect on the H. pylori strains was confirmed through the MBC index.

[7] = Drug interaction (PK) trial of JP-1366, amoxicillin and clarithromycin in healthy adult volunteers; format: in vivo, human
From the text: Test drug and administration period A. Test drug 1: […] Jeil Pharmaceutical • Dose: […] Oral B. […] Selection and classification of clinical trial subjects […]

[8] = strain SS1, unit not given in table (method uses μg/mL)
[9] = MH medium + JP1366 at ½ MIC concentration, unit not given
[10] = MH medium, unit not given in table (method uses μg/mL)
[11] = JP-1366, three-drug regimen vs JP-1366 alone

| Compound | MBC [1, 8] | MIC [2] | MBC [2] | MBC [3] | MIC [3] | MIC [1, 8] | also measured |
| --- | --- | --- | --- | --- | --- | --- | --- |
| CC1(C)S[C@@H]2[C@H](NC(=O)[C@H](N)c3ccc(O)cc3)C(=O)N2[C@H]1C(=O)O [Amoxicillin] | 0.25 | 0.016~0.032 | 0.032 | 0.032 | 0.016~0.032 |  |  |
| CC[C@H]1OC(=O)[C@H](C)[C@@H](O[C@H]2C[C@@](C)(OC)[C@@H](O)[C@H](C)O2)[C@H](C)[C@@H](O[C@@H]2O[C@H](C)C[C@H](N(C)C)[C@H]2O)[C@](C)(OC)C[C@@H](C)C(=O)[C@H](C)[C@@H](O)[C@]1(C)O [Clarithromycin] | 0.125 | 0.032 | 0.063 | 0.125 | 0.063~0.125 | 0.032 | MBC [4, 9]: 0.032 to 0.063; MIC [4, 9]: 0.032 to 0.063; MBC [4, 10]: 0.063 to 0.125; MIC [4, 10]: 0.032 to 0.063; lowering of MBC in medium containing JP1366 ([4]; medium with zastaprazan (JP1366) at ½ MIC concentration vs MH medium): about ½ |
| CNCc1cn(S(=O)(=O)c2cccc(F)c2)c(-c2ccc(F)cc2F)c1OC [Fexuprazan] | 64~128 | 64 | 64~128 | 64~128 | 64 | 64 |  |
| Cc1cccc(C)c1CNc1cc(C(=O)N2CCC2)cn2c(C)c(C)nc12.O=C(O)CC(O)(CC(=O)O)C(=O)O [JP-1366, azetidin-1-yl{8-[(2,6-dimethylbenzyl)amino]-2,3-dimethylimidazo[1,2-a]pyridin-6-yl}methanone citrate salt] | 16~32 |  | 8~32 | 16~32 |  |  | healing effect compared with Nexium 40 mg ([5]; H. pylori-negative group, 20 mg): the same effect as Nexium 40 mg; symptoms (heartburn, acid reflux, heartburn/acid reflux) within 24 hours and for seven days after administration ([5]; JP-1366 5 mg two capsules (10 mg) once a day): all symptoms tended to be ameliorated; symptoms (heartburn, acid reflux, heartburn/acid reflux) within 24 hours and for seven days after administration ([5]; JP-1366 20 mg one capsule once a day): all symptoms tended to be ameliorated; solubility [6]: low; MBC ([1]; Helicobacter pylori, stated in Example 5 method, H. pylori SS1, read-out: maximum MBC value): 32 mg/L; AUCT higher when T3 was administered compared to T1 [7, 11]: approximately 2.4 times; AUCτ, Geometric LS Mean Ratio (T3/T1), Point Estimate [7, 11]: 2.4422; Cmax, ss higher when T3 was administered compared to T1 [7, 11]: approximately 1.8 times; Cmax, ss, Geometric LS Mean Ratio (T3/T1), Point Estimate [7, 11]: 1.7766; Cmax ([7]; human, in vivo, JP-1366 after T1: JP-1366 20 mg 1 capsule alone, twice daily, 5 days, oral, N = 24, read-out: Cmax, ss, Geometric LS Mean): 0.156 µg/mL; increase of area under the concentration-time curve (AUCT) compared to single administration ([7]; zastaprazan combined with amoxicillin and clarithromycin): more than twofold |
| COc1ccc2[nH]c([S+]([O-])Cc3ncc(C)c(OC)c3C)nc2c1 (stereo not drawn) [Omeprazole] | 64~128 | 32 | 64 | 64~128 | 32~64 | 32~64 |  |
